# Data as given in patent US20200405687A1, “METHODS FOR THE TREATMENT OF INFECTION” (Corbus Pharmaceuticals, Inc., priority 2016, published 2020).
# “Also recorded” adds a separate entry of the source.
# Tested on: UV-killed Escherichia coli
# Assay: Skin challenge (blister) model, intradermal UV-killed E. coli in healthy volunteers (Example 3)
# Format: in vivo, humans
# Conditions: for infiltration of neutrophils at the site of inflammation (blister exudate): 4 h and 10 h
# Procedure: The ability of administration of a pharmaceutical composition including ajulemic acid to treat infection was assayed in a skin challenge model. A self-resolving acute inflammatory response was triggered by the intradermal injection of UV-killed Escherichia coli into the forearm of healthy volunteers. […] This study was performed to determine whether ajulemic acid promotes the resolution of infection at the site of inflammation, thereby treating that infection.
# Cells and exudates were harvested at several time points following injection of UV-killed E. coli by applying negative pressure over the inflamed site.
# The study included four experimental groups (n=10 in each group): • 1) Placebo, twice daily for four days • 2) Ajulemic acid, 5 mg, twice daily for four days • 3) Ajulemic acid, 20 mg, twice daily for four days • 4) Prednisone, 15 mg daily for four days
# The volunteer (healthy males, 18-50 years) were randomly allocated to one of the above three groups and orally administered the test drug for four consecutive days. On the morning of the fourth day (after intake of the first dose), experimental acute inflammation was elicited by infection with UV-killed E. coli. The drug and the placebo were provided as capsules.
# UV killed E. coli (Strain: NCTC 10418, Source: Public Health England, UK) were prepared as follows. E. coli described were grown overnight in Luria Broth (Sigma) at 37° C. The next morning, the bacteria were washed twice in sterile PBS (2500 g, 20 min, 4° C.) and resuspended in a sterile petri dish.
# Bacteria were then killed by exposure to an ultraviolet light (UV) source (302 nm, ChemiDoc, trans-UV mode; Bio-Rad laboratories) for 60 min and then washed again in sterile saline. Bacterial counts were determined by optical density (OD600=0.365 equates to […] E. coli/ml). UVKEc were resuspended in a volume of sterile saline to obtain the count of 1.5×10^8/ml, aliquoted into sterile eppendorf tubes and then frozen at −80° C. until used for injections.
# After disinfecting and shaving the skin, 1.5×10^7 UVKEc in 100 μl saline were injected intradermally into a marked site on the volar aspect of each forearm. To characterize the treatment of infection using ajulemic acid, each forearm was allotted to one of the predefined time-points namely 4, 8, 14, 24, 48 or 72 hours (h). Thus the effects of intradermal injection of UVKEc were allowed to progress for the duration of the time-point after which a suction blister was raised over the marked injection site, and then aspirated immediately. In summary, volunteer had two injection sites, one on each forearm, and contributed to two time points. On a separate group of volunteers, blister was raised on the naïve skin and treated as the baseline time point. Study time-points were discussed with volunteers before consenting.
# Laser Doppler Imager (moor LDI-HIR, Moor Instruments Ltd, Axminster, Devon, UK) was used to quantify the blood flow at the site of infection. At predefined time points after injection of UVKEc, the forearm was placed under the scanner at a fixed distance to scan a fixed area. The scanner emits a laser beam, a portion of which is scattered by red blood cells present at the inflamed area. The scattering causes a change in frequency of the reflected light which is then detected by a photo detector. The velocity and concentration of red blood cells at the site directly affect the Doppler frequency shifts and account for the signal strength measured in arbitrary perfusion units. […] The total blood flow (measured in perfusion units) was calculated as product of number of valid pixels above background signal (Cut-off=300 perfusion units) and the mean blood flow signal over the valid pixels 11, 12.
# To obtain the exudate from the site of infection, a 10 mm diameter suction blister was induced directly over the site of injection. […]
compound,measurement,setting,value
"CCCCCCC(C)(C)c1cc(O)c2c(c1)OC(C)(C)[C@@H]1CC=C(C(=O)O)C[C@@H]21 [ajulemic acid, (6aR,10aR)-1-hydroxy-6,6-dimethyl-3-(2-methyl-2-octanyl)-6a,7,10,10a-tetrahydro-6H-benzo[c]chromene-9-carboxylic acid]",pro-resolving macrophages during the resolution arm of innate immune response,5 mg or 20 mg,increases pro-resolving macrophages
same,IL-8 (pro-inflammatory cytokine) levels in inflammatory exudate,"5 mg or 20 mg BID, 4 hr and 10 hr, multiplex ELISA, listed as Ajulemic acid",reduce
same,time course of neutrophil infiltration at the site of inflammation,"20 mg ajulemic acid group, relative to placebo",neutrophil infiltration is decreased relative to placebo
same,rise in C-reactive protein (CRP) levels in serum,"after UVKEc triggered acute inflammation, multiple time points",does not appear to inhibit the rise in C-reactive protein levels
same,infiltration of neutrophils at the site of inflammation (blister exudate),"ajulemic acid 5 mg or 20 mg BID, prednisone 15 mg daily, relative to placebo",decrease in the infiltration of neutrophils
same,infiltration of neutrophils at the site of inflammation (blister exudate),"ajulemic acid 5 mg or 20 mg BID, prednisone 15 mg daily, relative to placebo, listed as Ajulemic acid",reduce
same,levels of endotoxin at the site of injection,"ajulemic acid 5 mg or 20 mg BID, prednisone 15 mg daily, 4 hr and 10 hr, limulus amoebocyte lysate test",decreased levels of endotoxin; also recorded: reduces levels of endotoxin
same,local vascular blood flow at injection site (laser Doppler),"at least 20 mg AJA BID, four days",increase in local blood flow
same,vasodilation,summary of blister model results,reduce vasodilation
